Like-named read-outs stand apart in the source and are kept apart here. Where a SMILES comes first, the peptide text is derived from it.
Legend:
[1] = molecular target: T1, ACE (Oryctolagus cuniculus, UniProt P12822); settings: cited from earlier work
T1 construct: purchased Sigma-Aldrich (Shanghai) Trading Co., Ltd. A6778
T1 sequence (P12822 34-1310): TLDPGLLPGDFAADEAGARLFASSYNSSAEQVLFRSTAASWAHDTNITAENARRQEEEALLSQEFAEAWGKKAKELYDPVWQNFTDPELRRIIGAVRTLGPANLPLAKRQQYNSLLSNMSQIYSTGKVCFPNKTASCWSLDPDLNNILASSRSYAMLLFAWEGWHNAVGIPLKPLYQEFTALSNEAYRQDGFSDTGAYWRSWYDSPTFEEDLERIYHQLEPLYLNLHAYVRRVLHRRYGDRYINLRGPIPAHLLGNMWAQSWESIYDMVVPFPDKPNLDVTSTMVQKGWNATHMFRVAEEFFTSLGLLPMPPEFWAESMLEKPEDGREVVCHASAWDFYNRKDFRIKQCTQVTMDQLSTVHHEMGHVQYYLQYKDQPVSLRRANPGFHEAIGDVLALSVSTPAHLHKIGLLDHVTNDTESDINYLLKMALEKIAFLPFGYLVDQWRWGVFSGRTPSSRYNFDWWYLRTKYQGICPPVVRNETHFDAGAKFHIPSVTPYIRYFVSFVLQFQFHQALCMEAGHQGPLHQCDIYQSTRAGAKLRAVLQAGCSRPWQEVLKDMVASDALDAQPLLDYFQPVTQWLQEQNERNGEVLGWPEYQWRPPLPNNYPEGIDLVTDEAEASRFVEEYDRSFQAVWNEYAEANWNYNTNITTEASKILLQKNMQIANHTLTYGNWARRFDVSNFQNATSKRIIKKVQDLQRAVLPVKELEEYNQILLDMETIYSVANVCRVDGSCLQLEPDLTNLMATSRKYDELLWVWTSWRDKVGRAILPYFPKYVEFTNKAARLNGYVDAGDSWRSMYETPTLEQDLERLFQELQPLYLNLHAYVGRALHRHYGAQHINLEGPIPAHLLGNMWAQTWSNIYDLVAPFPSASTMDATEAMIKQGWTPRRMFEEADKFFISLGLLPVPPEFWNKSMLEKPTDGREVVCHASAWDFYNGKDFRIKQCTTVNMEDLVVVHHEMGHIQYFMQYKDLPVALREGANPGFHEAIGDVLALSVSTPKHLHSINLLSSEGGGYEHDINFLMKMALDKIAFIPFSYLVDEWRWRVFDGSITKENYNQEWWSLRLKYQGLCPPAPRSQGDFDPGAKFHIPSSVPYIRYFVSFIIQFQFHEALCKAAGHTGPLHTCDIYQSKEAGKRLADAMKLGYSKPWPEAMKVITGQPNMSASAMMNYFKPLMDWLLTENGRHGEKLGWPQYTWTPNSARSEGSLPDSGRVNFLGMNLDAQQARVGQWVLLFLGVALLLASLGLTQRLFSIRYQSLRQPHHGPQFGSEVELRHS
From the text: Among these peptides, ACEi peptides represent a promising alternative to synthetic drugs to control hypertension. For instance, canary seed peptides (CSP) have great potential as anti-hypertensive and anti-obesity agents due to their inhibition activity on ACE and pancreatic lipase, and their non-competitive inhibitory activity was due to their destabilization of the transition state and Zn(II) coordination in ACE [13]. […] Auwal et al. illustrated that branched aliphatic or dicarboxylic amino acids (Val, Ala, Ile, and Leu) at the N-terminus could strengthen ACEi ability of peptides. Then, Val residue at the N-terminus of TMAP2 could improve its ACEi ability. […] Therefore, Ser residue, especially its hydroxyl group, should play a vital effect in the ACEi capability of ...

[2] = molecular target: T1, ACE; set-up: method as in 3 sources, ref 47 = [47]; doi:10.1016/j.lwt.2016.08.047; 47. Wang X. Chen H. Fu X. Li S. Wei J. A novel antioxidant and ACE inhibitory peptide from rice bran protein: Biochemical characterization and molecular docking study LWT-Food Sci.Technol. 2017 75 93 ||| ref 12 = [12]; PMID 31353484; doi:10.1111/jfbc.12572; 12. Fan H. Liao W. Wu J. Molecular interactions, bioavailability, and cellular mechanisms of angiotensin-converting enzyme inhibitory peptides J. Food Biochem. 2019 43 e12572 10.1111/jfbc.12572 313534 ||| ref 51 = [51]; PMID 28873590; doi:10.1016/j.foodchem.2017.06.112; 51. Abdelhedi O. Nasri R. Mora L. Jridi M. Toldra F. Nasri M. In silico analysis and molecular docking study of angiotensin I-converting enzyme inhibitory peptides from smooth-hound viscera protein hy; settings: docking; cited from earlier work
[3] = molecular target: T2, angiotensin-I-converting enzyme (ACE) (UniProt P12822)
T2 sequence: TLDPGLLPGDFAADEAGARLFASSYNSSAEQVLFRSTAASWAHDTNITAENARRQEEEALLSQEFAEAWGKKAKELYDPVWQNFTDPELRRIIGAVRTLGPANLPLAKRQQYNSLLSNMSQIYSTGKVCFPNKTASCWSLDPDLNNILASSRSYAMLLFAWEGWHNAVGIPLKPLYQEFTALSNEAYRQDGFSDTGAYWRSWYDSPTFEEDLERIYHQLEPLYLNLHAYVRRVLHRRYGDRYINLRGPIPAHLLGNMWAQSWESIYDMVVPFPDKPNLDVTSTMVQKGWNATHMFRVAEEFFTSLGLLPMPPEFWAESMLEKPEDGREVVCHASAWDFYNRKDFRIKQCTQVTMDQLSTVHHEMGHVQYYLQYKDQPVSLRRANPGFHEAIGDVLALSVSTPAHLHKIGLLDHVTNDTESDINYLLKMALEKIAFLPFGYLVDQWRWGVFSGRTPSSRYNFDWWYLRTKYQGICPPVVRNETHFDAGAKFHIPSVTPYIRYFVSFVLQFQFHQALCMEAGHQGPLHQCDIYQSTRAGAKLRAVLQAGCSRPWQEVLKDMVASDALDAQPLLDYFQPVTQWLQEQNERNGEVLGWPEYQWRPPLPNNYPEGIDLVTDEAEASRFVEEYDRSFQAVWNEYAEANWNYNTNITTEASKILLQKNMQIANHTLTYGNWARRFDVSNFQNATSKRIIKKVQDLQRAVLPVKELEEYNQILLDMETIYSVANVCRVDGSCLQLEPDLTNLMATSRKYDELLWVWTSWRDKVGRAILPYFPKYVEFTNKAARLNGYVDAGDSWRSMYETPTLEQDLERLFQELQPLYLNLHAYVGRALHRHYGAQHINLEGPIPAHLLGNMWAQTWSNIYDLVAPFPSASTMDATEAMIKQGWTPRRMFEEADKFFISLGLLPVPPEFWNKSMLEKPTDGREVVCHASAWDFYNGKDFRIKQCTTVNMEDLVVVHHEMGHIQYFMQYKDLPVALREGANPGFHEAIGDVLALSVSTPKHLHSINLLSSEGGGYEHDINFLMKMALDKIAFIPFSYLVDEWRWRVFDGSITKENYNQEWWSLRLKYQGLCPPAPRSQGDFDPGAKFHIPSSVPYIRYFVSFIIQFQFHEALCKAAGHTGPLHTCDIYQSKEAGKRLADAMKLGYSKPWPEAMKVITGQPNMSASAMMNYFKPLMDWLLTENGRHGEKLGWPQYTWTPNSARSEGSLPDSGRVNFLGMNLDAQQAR

[4] = tested on: HUVECs; assay: NO production in HUVECs; assay type: cell-based, human; settings: 24 h; for NO level: control 34.41 ± 1.27
[5] = tested on: HUVECs; assay: ET-1 secretion of HUVECs; assay type: cell-based, human; settings: 24 h; for ET-1 secretion: control 118.68 ± 0.53
From the text: Skipjack tuna (K. pelamis) muscle was provided by Ningbo Today Food Co., Ltd (China). Sephadex G-25 resins and NO assay kit (Nitrate reductase approach, A012-1) were purchased from Nanjing Jiancheng Bioengineering Institute (China). ET-1 ELISA Kit (HM10108) was purchased from Shanghai Qiaodu Biotechnology Co. Ltd. (China).Trypsase (≥20,000 U/g), pepsase (≥500,000 U/g), papain (≥400,000 U/g), ACE (A6778) and N-[3-(2-Furyl) acryloyl]-Phe-Gly-Gly (FAPGG, F713) were purchased from Sigma-Aldrich (Shanghai) Trading Co., Ltd. (China). […] ACEi Peptides of (TMAP1-TMAP6) with purity higher than 98% were synthesized in Shanghai Apeptide Co. Ltd. (China).
The NO and ET-1 contents of HUVECs were determined after a 24 h treatment of ACEi peptides. […] NO and ET-1 production in treated cells were measured by employing human NO and ET-1 assay kit as manufactures’ protocol, separately.

[6] = tested on: ACE N-domain; set-up: method as in PMID 33340899; settings: docking; cited from earlier work
[7] = tested on: ACE C-domain; set-up: method as in PMID 33340899; settings: docking; cited from earlier work

For SPRCR [ACEi peptide with Ser residue], the IC50 [1] is given as 41 µM.

For “AGPPGSDGQPGA [ACEi peptide from lizardfish]”, the IC50 ([1]; lizardfish peptide) is given as 544 µg/mL.

In the case of EHPVL [ACEi peptide from stone fish], the IC50 ([1]; stone fish peptides) is listed as 1680 µM.

For “ALPMHIR [larger peptide composed of 7–11 amino acid residues]”, the “interaction with ACE channel / active site” value [2] is listed as “showed low interaction scores”.

In the case of “AVVPPSDKM [larger peptide composed of 7–11 amino acid residues]”, the “interaction with ACE channel / active site” value [2] is listed as “showed low interaction scores”.

In the case of LGPLGHQ [ACEi peptide from skate], the IC50 ([1]; skate peptides) is given as 4.22 µM.

In the case of LAPPTM [ACEi peptide from stone fish], the IC50 ([1]; stone fish peptides) is listed as 1310 µM.

For “HWTTQR [ACEi peptide from seaweed pipefish]”, the IC50 ([1]; seaweed pipefish peptide) is listed as 1440 µM.

Work on Phe-Glu-Met (FEM) (peptide) yielded an IC50 of ACE inhibitory (ACEi) activity; enzyme assay with FAPGG as substrate, Tris-HCl 50 mM pH 8.3, 300 mM NaCl, 37 °C, product measured by HPLC [3] of 2.18 mg/mL.

Ser-Pro (SP) (peptide) showed an IC50 of ACE inhibitory (ACEi) activity; enzyme assay with FAPGG as substrate, Tris-HCl 50 mM pH 8.3, 300 mM NaCl, 37 °C, product measured by HPLC [3] of 0.06 mg/mL.

For “GPAGPRGPAG [larger peptide composed of 7–11 amino acid residues]”, the “interaction with ACE channel / active site” value [2] is given as “showed low interaction scores”.

For MVGSAPGVL [ACEi peptide from skate], the IC50 ([1]; skate peptides) is listed as 3.09 µM.

For EVLIQ [ACEi peptide from stone fish], the IC50 ([1]; stone fish peptides) is listed as 1440 µM.

In the case of `NC[C@H](O)c1ccc(O)c(O)c1` [NE, norepinephrine], the NO level ([4]; NE 0.5 μM, p < 0.001) is reported as 24.25 ± 0.63 μmol/gprot and the ET-1 secretion ([5]; NE 0.5 μM, p < 0.01) is reported as 140.23 ± 5.81 pg/mL.

For VSQLTR [ACEi peptide with Ser residue], the IC50 [1] is given as 105 µM.

In the case of YVVF [literature peptide docked to ACE], the N-domain affinity [6] is given as -8.8 kcal/mol and the C-domain affinity [7] is given as -9.8 kcal/mol.

In the case of `N[C@@H](CO)C(=O)N1CCC[C@H]1C(=O)O` [TMAP1, Ser-Pro] (H-Ser-Pro-OH), the “reversal of NE-reduced NO content” value ([4]; 200 μM peptide with NE (0.5 μM), p < 0.001 vs NE) is reported as “partially offset”, the NO level ([4]; 400 μM, p < 0.001) is reported as 57.25 ± 2.31 μmol/gprot and the “NO level vs control group” value ([4]; 100, 200 and 400 μM, p < 0.001) is reported as “significantly increased”. The “ET-1 secretion with NE” value ([5]; 200 μM peptide with NE (0.5 μM), NE alone 140.23 ± 5.81, p < 0.01) was 114.08 ± 5.82 pg/mL, the ET-1 secretion ([5]; 400 μM) was 94.86 ± 0.39 pg/mL and the “ET-1 secretion vs control group” value ([5]; tested concentrations (100–400 μM), p < 0.001 or p < 0.01) was “decreased”.

In the case of “TTMYPGIA [larger peptide composed of 7–11 amino acid residues]”, the “interaction with ACE channel / active site” value [2] is listed as “showed low interaction scores”.

Work on `C[C@H](CS)C(=O)N1CCC[C@H]1C(=O)O` [Cap, captopril] yielded an NO level ([4]; Cap positive control (1 μM per method), p < 0.001) of 65.96 ± 1.83 μmol/gprot and an ET-1 secretion ([5]; 0.5 μM Cap, p < 0.001) of 84.16 ± 1.18 pg/mL.

Work on Tyr-Glu (YE) (peptide) yielded an IC50 of ACE inhibitory (ACEi) activity; enzyme assay with FAPGG as substrate, Tris-HCl 50 mM pH 8.3, 300 mM NaCl, 37 °C, product measured by HPLC [3] of 0.8 mg/mL.

For LVLL [literature peptide docked to ACE], the N-domain affinity [6] is listed as -7.5 kcal/mol and the C-domain affinity [7] is listed as -8.6 kcal/mol.

For “VKPLPQSG [larger peptide composed of 7–11 amino acid residues]”, the “interaction with ACE channel / active site” value [2] is listed as “showed low interaction scores”.

In the case of VHGVV [Val-His-Gly-Val-Val (VHGVV)], the IC50 of ACE inhibitory (ACEi) activity; enzyme assay with FAPGG as substrate, Tris-HCl 50 mM pH 8.3, 300 mM NaCl, 37 °C, product measured by HPLC [3] is reported as 0.9 mg/mL.

FWRV [Phe-Trp-Arg-Val (FWRV)] showed an IC50 of ACE inhibitory (ACEi) activity; enzyme assay with FAPGG as substrate, Tris-HCl 50 mM pH 8.3, 300 mM NaCl, 37 °C, product measured by HPLC [3] of 0.76 mg/mL.

VDRYF [Val-Asp-Arg-Tyr-Phe (VDRYF)] showed an IC50 of ACE inhibitory (ACEi) activity; enzyme assay with FAPGG as substrate, Tris-HCl 50 mM pH 8.3, 300 mM NaCl, 37 °C, product measured by HPLC [3] of 0.28 mg/mL.

— PMC8954214, “Preparation, Identification, Molecular Docking Study and Protective Function on HUVECs of Novel ACE Inhibitory Peptides from Protein Hydrolysate of Skipjack Tuna Muscle” (Marine Drugs, 2022)
